Laboratory results reported in PubChem BioAssay AID2060613 (Molecular Pharmacology Branch, DTP, NCI, 2025).

System: 233499-124-R-J3-PDC complex spheroid viability
Assay: Anticancer human tumor 233499-124-R-J3-PDC patient-derived colon adenocarcinoma cell line growth inhibition [CLK]
Conditions: for IC50: curve of first compound; for viability, T/C: stronger effect = lower value
In short: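 Multi-cell-type spheroids combined patient-derived tumor cells with HUVEC endothelial cells and human mesenchymal stem cells. Paired agents were dosed in half-log steps down from about clinical Cmax, or from 10 microM where Cmax was unknown.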

[1] = second compound 0.0316 µM, first compound 0.0316 µM
[2] = second compound 0.0316 µM, first compound 0.1 µM
[3] = second compound 0.0316 µM, first compound 0.316 µM
[4] = second compound 0.0316 µM, first compound 1 µM
[5] = second compound 0.0316 µM, first compound 3.16 µM
[6] = second compound 0.0316 µM, first compound 10 µM
[7] = second compound 0.1 µM, first compound 0.0316 µM
[8] = second compound 0.1 µM, first compound 0.1 µM
[9] = second compound 0.1 µM, first compound 0.316 µM
[10] = second compound 0.1 µM, first compound 1 µM
[11] = second compound 0.1 µM, first compound 3.16 µM
[12] = second compound 0.1 µM, first compound 10 µM
[13] = second compound 0.316 µM, first compound 0.0316 µM
[14] = second compound 0.316 µM, first compound 0.1 µM
[15] = second compound 0.316 µM, first compound 0.316 µM
[16] = second compound 0.316 µM, first compound 1 µM
[17] = second compound 0.316 µM, first compound 3.16 µM
[18] = second compound 0.316 µM, first compound 10 µM
[19] = second compound 1 µM, first compound 0.0316 µM
[20] = second compound 1 µM, first compound 0.1 µM
[21] = second compound 1 µM, first compound 0.316 µM
[22] = second compound 1 µM, first compound 1 µM
[23] = second compound 1 µM, first compound 3.16 µM
[24] = second compound 1 µM, first compound 10 µM
[25] = second compound 3.16 µM, first compound 0.0316 µM
[26] = second compound 3.16 µM, first compound 0.1 µM
[27] = second compound 3.16 µM, first compound 0.316 µM
[28] = second compound 3.16 µM, first compound 1 µM
[29] = second compound 3.16 µM, first compound 3.16 µM
[30] = second compound 3.16 µM, first compound 10 µM
[31] = second compound 10 µM, first compound 0.0316 µM
[32] = second compound 10 µM, first compound 0.1 µM
[33] = second compound 10 µM, first compound 0.316 µM
[34] = second compound 10 µM, first compound 1 µM
[35] = second compound 10 µM, first compound 3.16 µM
[36] = second compound 10 µM, first compound 10 µM
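Further: spheroids exposed to the drug combinations for seven days.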
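Wherever viability, T/C is given: percent viability relative to DMSO vehicle control wells taken as 100%.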

In the case of C=CC(=O)N1CCN(c2nc(=O)n(-c3c(C)ccnc3C(C)C)c3nc(-c4c(O)cccc4F)c(F)cc23)C(C)C1 (centres undefined) + CN1CCN(c2cc(C(=O)Nc3cc4cc(-c5cnn(C)c5)ccc4cn3)ccn2)CC1, the IC50 (second compound 0.0316 µM) is reported as greater than 10 µM, the IC50 (second compound 0.1 µM) is reported as greater than 10 µM and the IC50 (second compound 0.316 µM) is reported as greater than 10 µM. The IC50 (second compound 1 µM) was less than 0.0316 µM, the IC50 (second compound 3.16 µM) was less than 0.0316 µM and the IC50 (second compound 10 µM) was less than 0.0316 µM. For the same compound, the viability, T/C [1] was 91%, the viability, T/C [2] was 105% and the viability, T/C [3] was 103%. It also gave a viability, T/C [4] of 102%, a viability, T/C [5] of 102% and a viability, T/C [6] of 101%. For the same compound, the viability, T/C [7] was 99.8%, the viability, T/C [8] was 102% and the viability, T/C [9] was 106%. The viability, T/C [10] was 99.9%, the viability, T/C [11] was 101% and the viability, T/C [12] was 108%. For the same compound, the viability, T/C [13] was 89.6%, the viability, T/C [14] was 103% and the viability, T/C [15] was 96%. The viability, T/C [16] was 88.5%, the viability, T/C [17] was 92.4% and the viability, T/C [18] was 82.6%. For the same compound, the viability, T/C [19] was 3.8%, the viability, T/C [20] was 11.4% and the viability, T/C [21] was 1.76%. For the same compound, the viability, T/C [22] was 2.52%, the viability, T/C [23] was 1.73% and the viability, T/C [24] was 0.3%. For the same compound, the viability, T/C [25] was 0.65%, the viability, T/C [26] was 0.61% and the viability, T/C [27] was 0.73%. For the same compound, the viability, T/C [28] was 0.79%, the viability, T/C [29] was 1.69% and the viability, T/C [30] was 1.55%. The viability, T/C [31] was 0.41%, the viability, T/C [32] was 0.38% and the viability, T/C [33] was 0.45%. It also gave a viability, T/C [34] of 0.53%, a viability, T/C [35] of 0.5% and a viability, T/C [36] of 1.01%.

O=C(c1cc(Cc2n[nH]c(=O)c3ccccc23)ccc1F)N1CCN(C(=O)C2CC2)CC1 + CNC(=O)c1ccc(Nc2nc(OC3CCCC3)c3c(-c4ccc5nc(C)oc5c4)c[nH]c3n2)c(OC)c1 was tested, and the IC50 (second compound 0.0316 µM) was greater than 10 µM, the IC50 (second compound 0.1 µM) was greater than 10 µM and the IC50 (second compound 0.316 µM) was greater than 10 µM. For the same compound, the IC50 (second compound 1 µM) was greater than 10 µM, the IC50 (second compound 3.16 µM) was greater than 10 µM and the IC50 (second compound 10 µM) was greater than 10 µM. The viability, T/C [1] was 96%, the viability, T/C [2] was 91.1% and the viability, T/C [3] was 93%. For the same compound, the viability, T/C [4] was 102%, the viability, T/C [5] was 102% and the viability, T/C [6] was 95.7%. It also gave a viability, T/C [7] of 76.7%, a viability, T/C [8] of 84.3% and a viability, T/C [9] of 71.6%. The viability, T/C [10] was 70.1%, the viability, T/C [11] was 57.8% and the viability, T/C [12] was 55.1%. It also gave a viability, T/C [13] of 75.6%, a viability, T/C [14] of 77.7% and a viability, T/C [15] of 78%. It also gave a viability, T/C [16] of 78%, a viability, T/C [17] of 84.1% and a viability, T/C [18] of 76.2%. It also gave a viability, T/C [19] of 67.6%, a viability, T/C [20] of 79.6% and a viability, T/C [21] of 65.6%. The viability, T/C [22] was 71.2%, the viability, T/C [23] was 74.4% and the viability, T/C [24] was 68.4%. The viability, T/C [25] was 80%, the viability, T/C [26] was 79.1% and the viability, T/C [27] was 75.6%. For the same compound, the viability, T/C [28] was 66.7%, the viability, T/C [29] was 87.8% and the viability, T/C [30] was 59.6%. The viability, T/C [31] was 71%, the viability, T/C [32] was 85.3% and the viability, T/C [33] was 74.8%. The viability, T/C [34] was 75.2%, the viability, T/C [35] was 65% and the viability, T/C [36] was 57.1%.
